# In US11839614B2, “Methods for treating or mitigating cardiotoxicity characterized by inhibition of adenosine A2 signaling and/or adenosine A2 receptor expression” (INTRA-CELLULAR THERAPIES, INC., priority 2018, dated 2023):
# What was measured:
# [1] = Plasma Compound 1 levels in dogs (LC/MS-MS); assay type: in vivo; conditions: dog; for concentration at 10 min / concentration at 30 min / concentration at 120 min: mongrel, plasma; for concentration at 10 min / concentration at 30 min: iv; for concentration at 120 min: po, 10 mg, 10 mg P.O., 120 min post dose
# Protocol: Dogs are studied in the conscious state before and after inducing dilated cardiomyopathy by tachypacing for two weeks at 200 bpm.
# The study employs two doses, 0.01 and 0.1 mg/kg, the latter administered 30 minutes after the first.
# (§1) Intravenous blood is placed in K2EDTA tubes, centrifuged at 2,000 g for 15 min, plasma decanted, and stored frozen. Compound 1 levels are assessed by a rapid, sensitive liquid chromatography-tandem mass spectrometric (LC/MS-MS) method.
# The mobile phase consists of a gradient of 60-100% methanol over 4.5 minutes in 5 mM ammonium bicarbonate with 0.2% NH3H2O, pumped at a flow rate of 0.8 mL/min. Analysis time is 4.5 min and both the analyte and internal standard eluted around 2.0 min. Multiple reactions monitoring (MRM) mode is used to detect Compound 1. MS is operated in the positive ion detection mode. […] Calibration curves are linear from 0.02-500 ng/mL in dog plasma sample matrices. The lower limit of quantification (LLOQ) for plasma was 0.02 ng/mL.
# plasma cAMP and cGMP = experiment: Plasma cAMP and cGMP by ELISA in dogs; assay type: in vivo, dog
# Protocol: Blood plasma is obtained from these animals, and cAMP and cGMP are assayed by ELISA.
# r-hPDE1A = target: T1, r-hPDE1A (Homo sapiens, UniProt P54750); experiment: Ki for full-length recombinant PDE1A; assay type: biochemical
# T1 construct: Its Kis for full-length recombinant r-hPDE1A, 1B, and 1C are 34, 380, and 37 pM
# T1 sequence (P54750 whole entry): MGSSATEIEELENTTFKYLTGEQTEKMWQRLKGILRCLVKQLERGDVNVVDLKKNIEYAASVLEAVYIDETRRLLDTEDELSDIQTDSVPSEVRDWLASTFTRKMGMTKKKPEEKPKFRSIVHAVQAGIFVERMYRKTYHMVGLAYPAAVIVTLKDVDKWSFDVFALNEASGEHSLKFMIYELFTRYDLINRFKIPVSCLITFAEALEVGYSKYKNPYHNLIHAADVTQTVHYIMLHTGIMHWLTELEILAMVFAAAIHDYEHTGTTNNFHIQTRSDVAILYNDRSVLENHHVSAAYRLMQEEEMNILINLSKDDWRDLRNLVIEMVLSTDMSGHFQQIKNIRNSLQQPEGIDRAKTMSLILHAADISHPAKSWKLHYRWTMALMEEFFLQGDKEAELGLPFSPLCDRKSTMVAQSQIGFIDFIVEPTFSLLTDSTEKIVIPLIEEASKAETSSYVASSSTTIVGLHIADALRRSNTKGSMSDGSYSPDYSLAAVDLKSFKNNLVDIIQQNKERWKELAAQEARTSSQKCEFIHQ
# Text: (§2) Additional pharmaceuticals used in the following examples are dobutamine (Hospira Inc., Lake Forest, Ill.), esmolol HCl (Mylan, Rockford, Ill.), MRS1754 (Tocris Bioscience, Bristol, UK), and Hespan (6% Hetastarch in 0.9% NaCl B. Braun Medical Inc., Bethlehem, Pa.).
# myocyte cAMP = experiment: Whole cell cAMP in isolated rabbit myocytes; assay type: cell-based; conditions: agent added to Fsk
# Text: This is consistent with prior studies showing locally generated cAMP from β-AR and its modulation by PDE3 occur in local subcellular domains that are not easily detected in whole cell lysates32.
# r-hPDE1C = target: T2, r-hPDE1C (Homo sapiens, UniProt Q14123); experiment: Ki for full-length recombinant PDE1C; assay type: biochemical
# T2 construct: Its Kis for full-length recombinant r-hPDE1A, 1B, and 1C are 34, 380, and 37 pM
# T2 sequence (Q14123 whole entry): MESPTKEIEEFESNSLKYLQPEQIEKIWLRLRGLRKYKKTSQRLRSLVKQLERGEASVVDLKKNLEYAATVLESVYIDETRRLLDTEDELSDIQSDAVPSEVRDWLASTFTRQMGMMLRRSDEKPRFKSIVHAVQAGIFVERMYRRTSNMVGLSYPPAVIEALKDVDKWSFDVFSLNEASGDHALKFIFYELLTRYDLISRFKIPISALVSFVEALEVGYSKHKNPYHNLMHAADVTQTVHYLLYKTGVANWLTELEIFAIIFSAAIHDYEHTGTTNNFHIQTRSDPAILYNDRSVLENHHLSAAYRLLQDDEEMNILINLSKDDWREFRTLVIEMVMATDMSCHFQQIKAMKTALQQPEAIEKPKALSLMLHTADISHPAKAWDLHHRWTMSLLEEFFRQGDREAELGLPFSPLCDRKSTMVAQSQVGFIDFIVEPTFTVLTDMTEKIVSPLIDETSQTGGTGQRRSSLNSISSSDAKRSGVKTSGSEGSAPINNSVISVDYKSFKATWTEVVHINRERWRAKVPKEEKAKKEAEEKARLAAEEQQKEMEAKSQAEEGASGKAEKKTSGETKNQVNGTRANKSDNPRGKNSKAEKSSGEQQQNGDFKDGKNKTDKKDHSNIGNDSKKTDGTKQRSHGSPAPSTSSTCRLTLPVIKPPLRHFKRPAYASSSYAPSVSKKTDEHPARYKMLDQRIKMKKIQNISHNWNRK
# Text: as §2
# [2] = test system: rabbit heart and vasculature; experiment: Anesthetized rabbit pressure-volume hemodynamics with or without esmolol or MRS-1754; assay type: in vivo
# Text: Cyclic AMP is generated largely by transmembrane adenylyl cyclases activated via stimulatory G protein (Gs), with β-adrenergic, adenosine (primarily A2B), glucagon, prostanoids, histamine, and serotonin all coupling to Gs in cardiomyocytes. The present studies focus on beta-adrenergic and adenosine receptors, and for the latter, concentrated on the A2B receptor, which has been reported to directly stimulate cAMP-dependent contractility. […] Relaxation changes are also modest with LV preload (end-diastolic and volume) unaltered; however, the combined vasodilator-inotropic response doubled ventricular/arterial coupling ratio, Ees/Ea.
# (§3) New Zealand White rabbits (male, 2-3 kg) are sedated with 35 mg/kg ketamine and 5 mg/kg xylazine, intubated and ventilated (Model 683, Harvard Apparatus, Holliston, Mass.), with anesthesia maintained with isoflurane inhalation (1-2%). A pressure-volume catheter (SPR-894, Millar, Inc., Houston, Tex.) is inserted via the common carotid artery and advanced to the LV apex, and a 2-Fr pacing catheter is positioned in the right atrium via the right jugular vein to provide atrial pacing. […] The parallel conductance is determined by the hypertonic saline injection method. Rabbits are infused with 6% hetastarch in saline during the procedure to stabilize arterial pressure.
# [3] = Plasma level in rabbits (LC/MS-MS); assay type: in vivo; conditions: male, New Zealand White, iv, rabbit, 0.1 mg/kg i.v.
# Protocol: as §3, §1
# The mobile phase consists of a gradient of 60-100% methanol over 4.5 minutes in 5 mM ammonium bicarbonate with 0.2% NH3H2O, pumped at a flow rate of 0.8 mL/min. Analysis time is 4.5 min and both the analyte and internal standard eluted around 2.0 min. Multiple reactions monitoring (MRM) mode is used to detect Compound 1. MS is operated in the positive ion detection mode. […] The lower limit of quantification (LLOQ) for plasma was 0.02 ng/mL.
# adult rabbit myocytes = experiment: Contraction and calcium transients in isolated rabbit cardiomyocytes; assay type: cell-based
# Protocol: To test whether PDE1 inhibition directly impacts cardiomyocyte contraction and calcium transients, studies are carried out on normal adult rabbit myocytes. […] As PDE1 requires sufficient cAMP and Ca^2+ to be impactful, a dose response was performed to the adenylate cyclase activator, forskolin (FSK) to determine the lowest dose producing a modest but significant inotropic effect (1 μM).
# Rabbit myocytes were isolated to determine the effect of PDE1 inhibition on cardiomyocyte contraction and whole cell Ca2+ transients, and to compare the results to those with a PDE3 inhibitor, cilostamide (Cil, 1 μM).
# An alternative approach to augmenting cAMP independent of […] is to directly stimulate adenylate cyclase using forskolin (Fsk). A dose response study was carried out to identify a non-saturating Fsk dose that still generated significant inotropic effects (1 μM).
# PDE4D = PDE4D (Homo sapiens, UniProt Q08499)
# Chain of PDE4D (Q08499 whole entry, species assumed): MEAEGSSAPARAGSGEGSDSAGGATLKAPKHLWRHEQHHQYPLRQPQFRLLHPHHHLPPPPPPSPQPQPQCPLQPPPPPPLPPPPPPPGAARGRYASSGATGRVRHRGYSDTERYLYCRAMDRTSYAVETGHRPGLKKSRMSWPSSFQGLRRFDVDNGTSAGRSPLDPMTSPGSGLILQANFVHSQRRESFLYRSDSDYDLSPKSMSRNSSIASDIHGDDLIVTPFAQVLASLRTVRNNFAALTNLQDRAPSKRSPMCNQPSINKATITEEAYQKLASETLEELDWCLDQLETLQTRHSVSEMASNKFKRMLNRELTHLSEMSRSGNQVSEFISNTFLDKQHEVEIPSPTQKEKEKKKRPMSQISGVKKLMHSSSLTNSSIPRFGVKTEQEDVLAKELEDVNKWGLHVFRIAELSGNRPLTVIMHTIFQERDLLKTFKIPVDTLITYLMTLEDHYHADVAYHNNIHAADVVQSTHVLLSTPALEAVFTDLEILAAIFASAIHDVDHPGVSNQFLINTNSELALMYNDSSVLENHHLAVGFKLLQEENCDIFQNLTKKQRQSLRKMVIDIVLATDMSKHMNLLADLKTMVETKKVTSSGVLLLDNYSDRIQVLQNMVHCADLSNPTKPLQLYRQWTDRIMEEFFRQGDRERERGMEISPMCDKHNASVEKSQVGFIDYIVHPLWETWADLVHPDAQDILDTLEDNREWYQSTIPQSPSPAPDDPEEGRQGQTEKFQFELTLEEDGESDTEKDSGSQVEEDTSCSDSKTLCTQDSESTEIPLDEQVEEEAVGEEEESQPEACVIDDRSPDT
# Text: as §2
# murine heart = experiment: Acute cardiovascular effects in intact mice; assay type: in vivo, mouse; conditions: intravenous bolus 0.1, 0.5 mg/kg
# Protocol: To test this, mice were administered the same or higher intravenous bolus doses (0.1, 0.5 mg/kg) as used in dogs and rabbits, and studied using a similar preparation to the rabbit.
# [4] = test system: normal and failing canine hearts; experiment: Conscious dog pressure-volume hemodynamic analysis, normal and failing hearts; assay type: in vivo
# Text: Dogs are studied in the conscious state before and after inducing dilated cardiomyopathy by tachypacing for two weeks at 200 bpm. […]
# Load insensitive indexes of contractility (dP/dtmax/IP and PRSW) increased.
# [5] = 0.1 mg/kg, plasma Compound 1 concentration, normal dogs, 0.1 mg/kg i.v.
# [6] = 0.1 mg/kg, plasma Compound 1 level, failing dogs, IV administration
# [7] = Compound 1 added after forskolin 1 μM
# [8] = agent added to non-saturating Iso
# [9] = agent alone: Cil 1 μM, Compound 1 1 μM, Iso non-saturating dose
# [10] = agent alone: Iso 50 nM, Compound 1 up to 1 mM, IBMX 100 μM
# [11] = control and HF dogs, 10 mg/kg oral, two hours
compound,measurement,setting,value
"CN1C(=O)c2c(nn(Cc3ccc(-c4cccc(F)n4)cc3)c2Nc2ccccc2)N2C1=N[C@@H]1CCC[C@@H]12 [Compound 1, (6aR,9aS)-2-(4-(6-fluoropyridin-2-yl)benzyl)-5-methyl-3-(phenyl-amino)-5,6a,7,8,9,9a-hexahydrocyclopenta-[4,5]imidazo[1,2-a]pyrazolo[4,3-e]pyrimidin-4-(2H)-one monophosphate]",therapeutic levels (plasma),[1]; in vivo,100 to 300 ng/mL
same,concentration at 10 min,"[1]; 0.01 mg/kg, plasma Compound 1 concentration, dogs, 0.01 mg/kg i.v.",23.6 ± 8.6 ng/mL
same,concentration at 10 min,[1]; [5],211 ± 60.7 ng/mL
same,concentration at 30 min,[1]; [5],94.5 ± 21.2 ng/mL
same,concentration at 10 min,[1]; [6],441 ± 92.5 ng/mL
same,concentration at 30 min,[1]; [6],185 ± 28.9 ng/mL
same,concentration at 120 min,"[1]; plasma Compound 1 concentration, HF dogs",178 ± 100 ng/mL
same,concentration at 120 min,"[1]; plasma Compound 1 concentration, normal dogs",104 ± 8.5 ng/mL
same,plasma cAMP,"plasma cAMP and cGMP; HF dogs, single drugs",not significantly changed
same,plasma cGMP,"plasma cAMP and cGMP; all conditions, normal and HF models",remains unchanged
same,Ki,r-hPDE1A,0.034 nM
same,whole cell cAMP,myocyte cAMP,substantially increased
same,Ki,r-hPDE1C,0.037 nM
same,cardiac output,[2]; 0.1 mg/kg i.v. bolus alone,increases cardiac output
same,heart rate,[2]; 0.1 mg/kg i.v. bolus alone,modestly elevated heart rate
same,rise in end-systolic elastance,[2]; 0.1 mg/kg i.v. bolus alone,50%
same,rise in pre-load recruitable stroke work,[2]; 0.1 mg/kg i.v. bolus alone,50%
same,systemic resistance,[2]; 0.1 mg/kg i.v. bolus alone,lowered systemic resistance
same,systolic pressure,[2]; 0.1 mg/kg i.v. bolus alone,no change in systolic pressure
same,contractile and vasodilation effects,[2]; Compound 1 after esmolol,remain intact
same,heart rate,[2]; Compound 1 after esmolol,no longer increases HR
same,responses with heart rate fixed compared with heart rate allowed to change,[2]; atrially paced at ~20% above sinus node rate,nearly identical responses
same,concentration at 15 min,[3],213 ± 88 ng/mL
same,peak calcium transient,adult rabbit myocytes; [7],remains unaltered
same,relaxation/calcium decay rates,adult rabbit myocytes; [7],significantly increases
same,sarcomere shortening,adult rabbit myocytes; [7],significantly increases
same,"shortening of calcium relaxation time constant, as share of the maximal achieved with IBMX",adult rabbit myocytes; FSK+Compound 1 versus FSK+IBMX,67%
same,Ca2+ transient decay rate,adult rabbit myocytes; agent added to Fsk 1 μM,enhanced the Ca2+ decay rate similarly to Cil
same,peak Ca2+ transient,adult rabbit myocytes; agent added to Fsk 1 μM,no corresponding increase in peak Ca2+ transient
same,sarcomere shortening,adult rabbit myocytes; agent added to Fsk 1 μM,sarcomere shortening rose as with Cil
same,peak-Ca2+,adult rabbit myocytes; [8],no longer significantly different from pre-Iso baseline
same,sarcomere shortening,adult rabbit myocytes; [8],did not change further
same,decay kinetics / relaxation times,adult rabbit myocytes; [9],this was not observed
same,peak-Ca2+ transient,adult rabbit myocytes; [9],this was not observed
same,percent sarcomere shortening,adult rabbit myocytes; [9],this was not observed
same,contraction/calcium decay time or rates,adult rabbit myocytes; [10],no effect
same,peak Ca2+ transient,adult rabbit myocytes; [10],no effect
same,sarcomere shortening,adult rabbit myocytes; [10],no effect
same,greater activity toward PDE1 isoforms compared with PDE4D,PDE4D,> 1000 fold
same,hemodynamic or cardiac changes,murine heart,failed to show any significant hemodynamic or cardiac changes
same,hemodynamic responses in all but heart rate,[4]; 0.01 mg/kg i.v.,negligible
same,hemodynamic responses,[4]; 0.1 mg/kg i.v.,"positive chronotropic, inotropic, lusitropic, and vasodilator responses were observed"
same,PV loop area (stroke work) and contractility,"[4]; 10 mg/kg Compound 1 added to 10 μg/kg/min dobutamine, control and failing hearts",further enhanced both
same,increase in heart rate,"[4]; HF animals, 10 mg/kg oral",blunted
same,augmentation of cardiac output,"[4]; HF dogs, 10 mg/kg oral, two hours",32%
same,LV preload (end-diastolic volume) or systolic pressure,[4]; [11],little change
same,contractility (end-systolic elastance),[4]; [11],increase in contractility
same,augmentation of cardiac output,"[4]; control dogs, 10 mg/kg oral, two hours",50%
same,"inotropy, lusitropy and vasodilation","[4]; heart failure dogs, 0.1 mg/kg i.v.",remained significantly improved
same,time to peak hemodynamic response,"[4]; intravenous, normal and HF dogs",5 to 10 min
same,heart rate,"[4]; normal dogs, 10 mg/kg oral",increased heart rate
same,relaxation (dP/dtmin and relaxation time constant tau),"[4]; normal dogs, 10 mg/kg oral",improved
same,systemic vascular resistance,"[4]; normal dogs, 10 mg/kg oral",reduced systemic vascular resistance
same,systolic blood pressure,"[4]; normal dogs, 10 mg/kg oral",without altering systolic blood pressure
